Tested on: post-operative dental pain
Assay: Clinical trial in patients with post-operative dental pain (model for acute pain), randomized double-blind parallel-group
Assay type: in vivo
Conditions: single dose, ibuprofen 400 mg, caffeine 100 mg or fixed combination
Protocol: Male and female patients between the ages of 18 and 55 years, scheduled for the extraction of 3 to 4 unsound wisdom teeth, with at least 2 extracted molars were recruited; the baseline of dental pain intensity must be at least moderate on a verbal evaluation scale and at least 5 on a numerical evaluation scale ranging from 0 to 10.
The pain intensity (PI) was evaluated in a diary before administration and at 0.25, 0.5, 0.75, 1, 1.5, 2, 3, 4, 5, 6, 7 and 8 hours after the first dose of the study medication using an 11-point numerical rating scale (NPRS) from 0=“no pain” to 10=“worst possible pain”.
The pain relief (PAR) beginning from pain onset was evaluated in a patient diary using a 5-point rating scale (VRS) (0=no pain relief; 1=a little pain relief; 2=some pain relief; 3=much pain relief; 4=complete pain relief) at the same time points as for the PI evaluation.
As soon as a patient needed an emergency medication or a second dose of the medication within less than 8 hours, PI and PAR were evaluated before the emergency medication or second dose was administered.
The time-weighted sum of pain relief (PAR) and the pain intensity difference (PID) relative to baseline between 0 and 8 hours is determined as follows:
Higher values of the SPRID0-8 h likewise indicate greater benefit for the patient.

With `CC(C)Cc1ccc(C(C)C(=O)O)cc1` (racemic) [Ibuprofen, (+/−) 2-(p-isobutylphenyl)-propionic acid] the “Median duration of action” value (Kaplan-Meyer analysis) was 7.1 h, the “Adjusted Mean SPRID0-8 h value (time-weighted sum of pain relief and pain intensity difference from 0 to 8 hours)” value (study stage 1, primary endpoint, higher = greater benefit) was 40.165 and the “Adjusted Mean SPRID0-2 h value (time-weighted sum of PAR and PID from 0 to 2 hours)” value (study stage 1, secondary endpoint) was 6.990.

Source: patent US20210121577A1, “FILM COATED TABLET FOR THE TREATMENT OF ACUTE PAIN” (SANOFI-AVENTIS DEUTSCHLAND GMBH, priority 2014, published 2021)
